Several values for one entry are separate records, joined by “and”; a condition that tells them apart may be missing. Equal entries are not always repeated.
Tests used:
[1] = test system: HEK293T cells; test: Drug sensitivity assay (CellTiter-Glo viability) with or without MLN4924 pretreatment; assay type: cell-based, human; settings: for CTG: MLN4924 yes, HEK293T, single well
In short: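 First, cells (HEK293T–Cas9, 0.15 × 10^6 ml^−1) are exposed to DMSO or 100 nM MLN4924. Next, drugs follow at 2 h. Finally, CellTiter-Glo is read at day 3 and normalised to DMSO.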

[2] = test system: cyclin K–eGFP degradation reporter; test: Cyclin K reporter stability analysis (dual-color cyclin K–eGFP reporter); assay type: cell-based, human; settings: for reporter assay signal (normalized): replicates
In short: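 First, reporter-bearing HEK293T–Cas9 cells are plated at 1 × 10^6 ml^−1. Next, drug or vehicle is added for 5 h. Finally, geometric-mean eGFP and mCherry signals of round, mCherry-positive cells are measured cytometrically, and their ratio is referenced to the DMSO average.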

[3] = target: CDK12–cyclin K (Homo sapiens, UniProt Q9NYV4); test: Lanthascreen kinase binding assay, CDK12; settings: for Lanthascreen raw signal, sheet CDK12: duplicates
Method: (§1) Lanthascreen experiments were performed using commercially available reagents (Thermo Fisher) and according to the manufacturer’s instructions.

[4] = target: T1, CDK2–cyclin A (Homo sapiens, UniProt P24941); test: Lanthascreen kinase binding assay, CDK2
T1 construct: purchased Thermo Fisher
Method: as §1

Chain of CDK12–cyclin K (Q9NYV4 713-1052): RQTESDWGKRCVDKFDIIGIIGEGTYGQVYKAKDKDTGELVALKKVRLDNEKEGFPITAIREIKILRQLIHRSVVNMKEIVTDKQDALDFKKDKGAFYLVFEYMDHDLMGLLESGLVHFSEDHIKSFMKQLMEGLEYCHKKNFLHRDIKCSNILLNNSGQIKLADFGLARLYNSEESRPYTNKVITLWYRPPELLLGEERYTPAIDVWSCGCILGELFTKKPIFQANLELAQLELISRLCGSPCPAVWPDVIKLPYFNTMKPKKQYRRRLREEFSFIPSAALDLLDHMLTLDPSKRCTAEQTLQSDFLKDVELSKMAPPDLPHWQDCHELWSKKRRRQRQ
Chain of CDK12–cyclin K (O75909 1-267 partner limits assumed): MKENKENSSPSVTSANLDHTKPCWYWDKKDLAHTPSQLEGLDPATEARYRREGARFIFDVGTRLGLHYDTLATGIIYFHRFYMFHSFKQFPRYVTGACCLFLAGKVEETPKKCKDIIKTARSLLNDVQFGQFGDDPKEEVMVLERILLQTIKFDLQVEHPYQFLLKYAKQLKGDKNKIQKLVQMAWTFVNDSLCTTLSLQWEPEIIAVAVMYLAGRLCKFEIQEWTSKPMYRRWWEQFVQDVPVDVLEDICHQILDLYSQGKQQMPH

CC(C)c1nn(-c2c(Cl)cccc2Cl)c2nc(Cc3ccc(OCCO)cc3)[nH]c(=O)c12 [compound 21195]
viability assay signal (normalized) ([1]; 5 nM, + MLN4924): 0.9981 and 0.9962 | viability assay signal (normalized) ([1]; 5 nM, without MLN4924): 1.164 and 1.103 | viability assay signal (normalized) ([1]; 10.7 nM, + MLN4924): 1.03 and 0.9545 | viability assay signal (normalized) ([1]; 10.7 nM, without MLN4924): 1.004 and 0.916 | viability assay signal (normalized) ([1]; 22.9 nM, + MLN4924): 1.044 and 1.059 | viability assay signal (normalized) ([1]; 22.9 nM, without MLN4924): 0.9744 and 0.9831 | viability assay signal (normalized) ([1]; 48.9 nM, + MLN4924): 0.9201 and 0.8826 | viability assay signal (normalized) ([1]; 48.9 nM, without MLN4924): 0.5003 and 0.5087 | viability assay signal (normalized) ([1]; 105 nM, + MLN4924): 0.7478 and 0.7261 | viability assay signal (normalized) ([1]; 105 nM, without MLN4924): 0.2946 and 0.2725 | viability assay signal (normalized) ([1]; 224 nM, + MLN4924): 0.3645 and 0.3756 | viability assay signal (normalized) ([1]; 224 nM, without MLN4924): 0.297 and 0.2837 | viability assay signal (normalized) ([1]; 478 nM, + MLN4924): 0.2678 and 0.2737 | viability assay signal (normalized) ([1]; 478 nM, without MLN4924): 0.2806 and 0.2662 | CTG ([1]; 2190 nM): 32283 | viability assay signal (normalized) ([1]; 2190 nM, + MLN4924): 0.2528 and 0.2544 | viability assay signal (normalized) ([1]; 2190 nM, without MLN4924): 0.2713 and 0.2676 | CTG ([1]; 4680 nM): 28534 and 32644 | viability assay signal (normalized) ([1]; 4680 nM, + MLN4924): 0.2234 and 0.2556 | viability assay signal (normalized) ([1]; 4680 nM, without MLN4924): 0.2632 and 0.2448 | CTG ([1]; 10000 nM): 27157 and 28920 | viability assay signal (normalized) ([1]; 10000 nM, + MLN4924): 0.2126 and 0.2265 | viability assay signal (normalized) ([1]; 10000 nM, without MLN4924): 0.2678 and 0.2469 | EC50 ([1]; Homo sapiens, HEK-293T, Supplementary Table 2, HEK293T viability, 72 h, compound alone, read-out: Cellular assays EC50): 39 nM | Toxicity rescue ([1]; Supplementary Table 2, MLN4924-mediated cytotoxicity rescue, 10 µM used where n.d.): 226% | reporter assay signal (normalized) ([2]; 2 nM): 0.9561 and 0.9287 | reporter assay signal (normalized) ([2]; 3 nM): 0.9797 and 0.9734 | reporter assay signal (normalized) ([2]; 4.5 nM): 0.9145 and 0.9397 | reporter assay signal (normalized) ([2]; 7.68 nM): 0.9019 and 0.9312 | reporter assay signal (normalized) ([2]; 22.8 nM): 0.769 and 0.8233 | reporter assay signal (normalized) ([2]; 34.2 nM): 0.7674 and 0.787 | reporter assay signal (normalized) ([2]; 51.3 nM): 0.6849 and 0.771 | reporter assay signal (normalized) ([2]; 77 nM): 0.6566 and 0.7136 | reporter assay signal (normalized) ([2]; 260 nM): 0.6047 and 0.6647 | reporter assay signal (normalized) ([2]; 390 nM): 0.6094 and 0.6714 | reporter assay signal (normalized) ([2]; 585 nM): 0.6094 and 0.6655 | reporter assay signal (normalized) ([2]; 877 nM): 0.6086 and 0.6352 | reporter assay signal (normalized) ([2]; 1970 nM): 0.5992 and 0.6495 | reporter assay signal (normalized) ([2]; 2960 nM): 0.552 and 0.6731 | reporter assay signal (normalized) ([2]; 4440 nM): 0.5937 and 0.62 | reporter assay signal (normalized) ([2]; 6670 nM): 0.5457 and 0.6014 | reporter assay signal (normalized) ([2]; 10000 nM): 0.5701 and 0.6031 | cyclin K reporter degradation, result in words ([2]; HEK293T): potent degraders | DC50 ([2]; source data sheet correlations, read-out: DC50): 26 nM | IC50 ([3]; Supplementary Table 2, read-out: Lanthascreen IC50 [nM] CDK12): 31 nM | Lanthascreen raw signal, sheet CDK12 ([3]; compound 0.038147 nM, series r49): 0.008046 and 0.008167 | Lanthascreen raw signal, sheet CDK12 ([3]; compound 0.152588 nM, series r49): 0.01001 and 0.009391 | Lanthascreen raw signal, sheet CDK12 ([3]; compound 0.610352 nM, series r49): 0.008764 and 0.009174 | Lanthascreen raw signal, sheet CDK12 ([3]; compound 0.76 nM, series r25): 0.01117 and 0.01013 | Lanthascreen raw signal, sheet CDK12 ([3]; compound 1.02544 nM, series r1): 0.009771 and 0.007848 | Lanthascreen raw signal, sheet CDK12 ([3]; compound 3.15521 nM, series r1): 0.009162 and 0.009522 | Lanthascreen raw signal, sheet CDK12 ([3]; compound 4.57247 nM, series r25): 0.01016 and 0.01236 | Lanthascreen raw signal, sheet CDK12 ([3]; compound 9.46563 nM, series r1): 0.007787 and 0.0086 | Lanthascreen raw signal, sheet CDK12 ([3]; compound 9.76563 nM, series r49): 0.007441 and 0.00728 | Lanthascreen raw signal, sheet CDK12 ([3]; compound 13.7174 nM, series r25): 0.01024 and 0.009436 | Lanthascreen raw signal, sheet CDK12 ([3]; compound 31.5521 nM, series r1): 0.006914 and 0.007088 | Lanthascreen raw signal, sheet CDK12 ([3]; compound 39.0625 nM, series r49): 0.007229 and 0.006516 | Lanthascreen raw signal, sheet CDK12 ([3]; compound 41.1523 nM, series r25): 0.009216 and 0.008226 | Lanthascreen raw signal, sheet CDK12 ([3]; compound 99.3891 nM, series r1): 0.004636 and 0.007689 | Lanthascreen raw signal, sheet CDK12 ([3]; compound 123.457 nM, series r25): 0.007812 and 0.006741 | Lanthascreen raw signal, sheet CDK12 ([3]; compound 156.25 nM, series r49): 0.006172 and 0.006187 | Lanthascreen raw signal, sheet CDK12 ([3]; compound 315.521 nM, series r1): 0.005556 and 0.004599 | Lanthascreen raw signal, sheet CDK12 ([3]; compound 370.37 nM, series r25): 0.006605 and 0.00608 | Lanthascreen raw signal, sheet CDK12 ([3]; compound 625 nM, series r49): 0.006151 and 0.006004 | Lanthascreen raw signal, sheet CDK12 ([3]; compound 2500 nM, series r49): 0.005584 and 0.005705 | Lanthascreen raw signal, sheet CDK12 ([3]; compound 3155.21 nM, series r1): 0.006552 and 0.005285 | Lanthascreen raw signal, sheet CDK12 ([3]; compound 3333.33 nM, series r25): 0.006042 and 0.006492 | Lanthascreen raw signal, sheet CDK12 ([3]; compound 10000 nM, series r25): 0.006222 and 0.005571 | Lanthascreen raw signal, sheet CDK12 ([3]; compound 10000 nM, series r49): 0.005751 and 0.005801 | Lanthascreen raw signal, sheet CDK12 ([3]; compound 10002 nM, series r1): 0.00595 and 0.006099 | Lanthascreen signal, sheet CDK2 ([4]; Compound 0.038147 nM, raw replicates, experiment r48-r58): 0.01114 and 0.01116 | Lanthascreen signal, sheet CDK2 ([4]; Compound 0.038147 nM, raw replicates, experiment r72-r82): 0.02274 and 0.02249 and 0.02111 | Lanthascreen signal, sheet CDK2 ([4]; Compound 0.152588 nM, raw replicates, experiment r48-r58): 0.01418 and 0.01279 | Lanthascreen signal, sheet CDK2 ([4]; Compound 0.152588 nM, raw replicates, experiment r72-r82): 0.0215 and 0.0211 and 0.01988 | Lanthascreen signal, sheet CDK2 ([4]; Compound 0.610352 nM, raw replicates, experiment r48-r58): 0.01088 and 0.01046 | Lanthascreen signal, sheet CDK2 ([4]; Compound 0.610352 nM, raw replicates, experiment r72-r82): 0.01525 and 0.01498 and 0.01532 | Lanthascreen signal, sheet CDK2 ([4]; Compound 1.02544 nM, raw replicates, experiment r1-r11): 0.008805 and 0.007055 | Lanthascreen signal, sheet CDK2 ([4]; Compound 3.15521 nM, raw replicates, experiment r1-r11): 0.006794 and 0.006701 | Lanthascreen signal, sheet CDK2 ([4]; Compound 4.57247 nM, experiment r25-r34): 0.009774 | Lanthascreen signal, sheet CDK2 ([4]; Compound 9.46563 nM, raw replicates, experiment r1-r11): 0.005367 and 0.004658 | Lanthascreen signal, sheet CDK2 ([4]; Compound 9.76563 nM, raw replicates, experiment r48-r58): 0.004922 and 0.004545 | Lanthascreen signal, sheet CDK2 ([4]; Compound 9.76563 nM, raw replicates, experiment r72-r82): 0.008551 and 0.007922 and 0.008628 | Lanthascreen signal, sheet CDK2 ([4]; Compound 13.7174 nM, experiment r25-r34): 0.006843 | Lanthascreen signal, sheet CDK2 ([4]; Compound 31.5521 nM, raw replicates, experiment r1-r11): 0.003961 and 0.003619 | Lanthascreen signal, sheet CDK2 ([4]; Compound 39.0625 nM, raw replicates, experiment r48-r58): 0.004317 and 0.004069 | Lanthascreen signal, sheet CDK2 ([4]; Compound 39.0625 nM, raw replicates, experiment r72-r82): 0.008233 and 0.00742 and 0.007049 | Lanthascreen signal, sheet CDK2 ([4]; Compound 41.1523 nM, experiment r25-r34): 0.005858 | Lanthascreen signal, sheet CDK2 ([4]; Compound 99.3891 nM, raw replicates, experiment r1-r11): 0.003218 and 0.002962 | Lanthascreen signal, sheet CDK2 ([4]; Compound 123.457 nM, experiment r25-r34): 0.005407 | Lanthascreen signal, sheet CDK2 ([4]; Compound 156.25 nM, raw replicates, experiment r48-r58): 0.004055 and 0.004446 | Lanthascreen signal, sheet CDK2 ([4]; Compound 156.25 nM, raw replicates, experiment r72-r82): 0.007121 and 0.006977 and 0.007061 | Lanthascreen signal, sheet CDK2 ([4]; Compound 315.521 nM, raw replicates, experiment r1-r11): 0.003513 and 0.004201 | Lanthascreen signal, sheet CDK2 ([4]; Compound 370.37 nM, experiment r25-r34): 0.005303 | Lanthascreen signal, sheet CDK2 ([4]; Compound 625 nM, raw replicates, experiment r48-r58): 0.004058 and 0.004497 | Lanthascreen signal, sheet CDK2 ([4]; Compound 625 nM, raw replicates, experiment r72-r82): 0.007299 and 0.007212 and 0.007465 | Lanthascreen signal, sheet CDK2 ([4]; Compound 2500 nM, raw replicates, experiment r48-r58): 0.004147 and 0.004489 | Lanthascreen signal, sheet CDK2 ([4]; Compound 2500 nM, raw replicates, experiment r72-r82): 0.007107 and 0.006983 and 0.006617 | Lanthascreen signal, sheet CDK2 ([4]; Compound 3155.21 nM, raw replicates, experiment r1-r11): 0.004846 and 0.003852 | Lanthascreen signal, sheet CDK2 ([4]; Compound 3333.33 nM, experiment r25-r34): 0.004706 | Lanthascreen signal, sheet CDK2 ([4]; Compound 10000 nM, experiment r25-r34): 0.005121 | Lanthascreen signal, sheet CDK2 ([4]; Compound 10000 nM, raw replicates, experiment r48-r58): 0.003844 and 0.004325 | Lanthascreen signal, sheet CDK2 ([4]; Compound 10000 nM, raw replicates, experiment r72-r82): 0.007331 and 0.007604 and 0.008348 | Lanthascreen signal, sheet CDK2 ([4]; Compound 10002 nM, raw replicates, experiment r1-r11): 0.002963 and 0.004615 | IC50 ([4]; Supplementary Table 2, read-out: Lanthascreen IC50 [nM] CDK2): 3 nM

— publication PMC10746543, “Design principles for cyclin K molecular glue degraders” (Nature Chemical Biology, 2023)
